Measured values as given in publication PMC12490008 (Environmental Science & Technology, 2025).
*1 amine or outer side, *2 acyl side, *3 side chain or, on linkers, in order; H or OH if unused. Where a SMILES comes first, the peptide text is derived from it. Bridges are numbered along the chain shown (N, C = ends). [ ]: non-standard residue; d: D form. Adda = CO[C@@H](Cc1ccccc1)[C@@H](C)/C=C(C)/C=C/[C@H](N[*:1])[C@H](C)C(=O)[*:2]; dAsp(3S-Me) = C[C@H](C(=O)[*:3])[C@@H](N[*:1])C(=O)[*:2]; d(γGlu) = O=C(O)[C@@H](CCC(=O)[*:2])N[*:1]; Abu = CC[C@H](N)C(=O)O; NMeDha = C=C(NC)C(=O)O

Tests used:
[1] = tested on: River Chriesbach biofilm suspensions
[2] = tested on: River Chriesbach biofilm suspension (100%)
[3] = tested on: River Chriesbach biofilm suspension
[4] = tested on: River Chriesbach biofilm suspension (100%, 10%, 1%)
[5] = tested on: River Chriesbach river water
[6] = tested on: lake Greifensee water and three rivers
[7] = tested on: River Mönschaltorfer Aa biofilm suspension
[8] = tested on: River Glatt biofilm suspension

`C=C1C(=O)N[C@H](C)C(=O)N[C@@H](CC(C)C)C(=O)N[C@@H](C(=O)O)[C@H](C)C(=O)N[C@@H](CC)C(=O)N[C@@H](/C=C/C(C)=C/[C@H](C)[C@H](Cc2ccccc2)OC)[C@H](C)C(=O)N[C@@H](C(=O)O)CCC(=O)N1C` [MC-LAba] ([Abu][Adda][d(γGlu)][NMeDha][dA]L[dAsp(3S-Me)]-OH; lactam N-7) was tested, and the “biodegradability in biofilm suspensions (in words)” value [1] was “remained rather stable”, the “1.3d removal, 2% metabolite” value [2] was -7% and the “1.3d removal, 10% metabolite” value [2] was -2%. The “1.3d removal, 100% metabolite” value [2] was 8%, the “Half-lives (h), 100% metabolite” value [2] was “n.d. (decay)” and the “removal within 3 days” value [3] was under 13%. The “1d removal, 1% biofilm” value [4] was -6%, the “1d removal, 10% biofilm” value [4] was 13% and the “1d removal, 100% biofilm” value [4] was -8%. For the same compound, the “Half-lives (h), 1% biofilm” value [4] was “n.d.(decay)”, the “Half-lives (h), 10% biofilm” value [4] was “n.d.(decay)” and the “Half-lives (h), 100% biofilm” value [4] was “n.d.(decay)”. For the same compound, the “1d removal, River water” value [5] was -11% and the “Half-lives (h), River water” value [5] was “n.d.(decay)”.

`O=C(O)c1ccccc1` [benzoic acid, reference compound] was tested, and the “biotransformation during incubation in surface waters” value [6] was “degraded within hours”, the “removal of benzoic acid after 8 h” value [7] was 41% and the “removal of benzoic acid after 24 h” value [7] was 84%. For the same compound, the “removal of benzoic acid within 4 h” value [2] was 94-100%, the “removal of benzoic acid after 8 h” value [3] was 72% and the “removal of benzoic acid after 24 h” value [3] was 100%. For the same compound, the “removal of benzoic acid after 1 day, 1% density” value [4] was 62%, the “removal of benzoic acid after 1 day, 10% density” value [4] was 77% and the “removal of benzoic acid after 1 day, 100% density” value [4] was 97%. The “removal of benzoic acid after 8 h” value [8] was 3% and the “removal of benzoic acid after 24 h” value [8] was 75%.

With [D-Asp3]MC‐(H4)YR [[D-Asp3]MC-(H4)YR] the “biodegradability in biofilm suspensions (in words)” value [1] was “biodegradable”, the “1.3d removal, 2% metabolite” value [2] was 100% and the “1.3d removal, 10% metabolite” value [2] was 100%. The “1.3d removal, 100% metabolite” value [2] was 94%, the “Half-lives (h), 100% metabolite” value [2] was 11.0 h and the “Lag-time (h), 100% metabolite” value [2] was 1.1 h. For the same compound, the “removal within 3 days” value [3] was 86%, the “1d removal, 1% biofilm” value [4] was 6% and the “1d removal, 10% biofilm” value [4] was 31%. The “1d removal, 100% biofilm” value [4] was 94%, the “Half-lives (h), 100% biofilm” value [4] was 7.6 h and the “Lag-time (h), 1% biofilm” value [4] was 108.8 h. The “Lag-time (h), 10% biofilm” value [4] was 56.4 h, the “Lag-time (h), 100% biofilm” value [4] was 5.8 h and the “half-life, 1% biofilm” value [4] was 120 h. For the same compound, the “half-life, 10% biofilm” value [4] was 62.4 h, the “1d removal, River water” value [5] was -24% and the “Lag-time (h), River water” value [5] was 168.0 h. For the same compound, the “degradation in ambient river water” value [5] was “detectable degradation” and the “half-life, river water” value [5] was 170 h.
